According to PMC6282425 (Pharmaceutical Biology, 2018):

Key:
CYP2A6 = molecular target: T1, CYP2A6 (Homo sapiens, UniProt P11509); experiment: CYP2A6 inhibition in human liver microsomes (coumarin 7-hydroxylation); assay type: in vitro ADME; conditions: 100 μM bergenin, pooled HLMs
T1 construct: from tissue; host or cells: pooled human liver microsomes
T1 sequence (P11509 1-494): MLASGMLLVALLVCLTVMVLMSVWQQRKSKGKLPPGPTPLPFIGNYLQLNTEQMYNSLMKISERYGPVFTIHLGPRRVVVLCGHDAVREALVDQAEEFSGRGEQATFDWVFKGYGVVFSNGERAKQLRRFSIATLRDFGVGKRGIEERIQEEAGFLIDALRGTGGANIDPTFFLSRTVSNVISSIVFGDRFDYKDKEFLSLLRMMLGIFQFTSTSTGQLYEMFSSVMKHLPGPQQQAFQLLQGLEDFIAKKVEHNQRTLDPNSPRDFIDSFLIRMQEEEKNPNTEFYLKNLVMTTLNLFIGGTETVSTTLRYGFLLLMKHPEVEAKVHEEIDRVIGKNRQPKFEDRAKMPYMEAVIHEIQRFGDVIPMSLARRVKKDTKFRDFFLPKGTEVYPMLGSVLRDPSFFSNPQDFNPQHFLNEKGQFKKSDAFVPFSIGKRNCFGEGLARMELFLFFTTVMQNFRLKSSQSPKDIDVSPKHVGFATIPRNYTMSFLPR
Method: (§1) All incubations were performed in triplicate, and the mean values were utilized.
(§2) There was a 3 min pre-incubation period (at 37 °C) before the reaction was initiated by adding an NADPH-generating system. The reaction was terminated by adding a 100 μL acetonitrile (10% trichloroacetic acid for CYP2A6) internal standard mix, and the solution was placed on ice. The mixture was centrifuged at 12,000 rpm for 10 min, and an aliquot (50 μL) of the supernatant was transferred for HPLC analysis. The instrument used in this study were Agilent 1260 series instrument (Palo Alto, CA, USA) with DAD and FLD detector, and the quantitative assay for the corresponding metabolites was performed as previously reported (Lang et al. [2017]; Zhang et al. [2017]).

CYP2C9 [1] = molecular target: T2, CYP2C9 (Homo sapiens, UniProt P11712); experiment: CYP2C9 inhibition in human liver microsomes (diclofenac 4′-hydroxylation); assay type: in vitro ADME; conditions: pooled HLMs
Method: as §1, §2
(§3) The enzyme kinetic parameters for the probe reaction were estimated from the best fit line using least-squares linear regression of the inverse substrate concentration versus the inverse velocity (Lineweaver–Burk plots), and the mean values were used to calculate Vmax and Km. Inhibition data from the experiments that were conducted using multiple compound concentrations were represented by Dixon plots, and inhibition constant (Ki) values were calculated using non-linear regression according to the following equation: v = (VmaxS)/(Km(1 + I/Ki) + S), where I is the concentration of the compound, Ki is the inhibition constant, S is the concentration of the substrate and Km is the substrate concentration at half the maximum velocity (Vmax) of the reaction. The mechanism of the inhibition was inspected using the Lineweaver–Burk plots and the enzyme inhibition models. The data comparison was performed using the Student’s t-test and performed using IBM SPSS statistics 20 (SPSS Inc., Chicago, IL).

CYP2D6 = CYP2D6 (Homo sapiens, UniProt P10635); experiment: CYP2D6 inhibition in human liver microsomes (dextromethorphan O-demethylation); assay type: in vitro ADME; conditions: 100 μM bergenin, pooled HLMs
Method: as §1, §2

CYP3A4 [2] = molecular target: T3, CYP3A4 (Homo sapiens, UniProt P08684); experiment: CYP3A4 inhibition in human liver microsomes (testosterone 6β-hydroxylation); assay type: in vitro ADME
Method: as §1, §2
The enzyme kinetic parameters for the probe reaction were estimated from the best fit line using least-squares linear regression of the inverse substrate concentration versus the inverse velocity (Lineweaver–Burk plots), and the mean values were used to calculate Vmax and Km. […]

[3] = set-up: method as in Pan et al. [2016]; conditions: rats, oral dose 100 mg/kg, ref Pan et al. [2016], cited from earlier work
CYP2E1 [4] = molecular target: T4, CYP2E1 (Homo sapiens, UniProt P05181); experiment: Time-dependent inhibition study in HLMs, CYP2E1; assay type: in vitro ADME; conditions: bergenin 20 μM, pre-incubation with HLM and NADPH for 30 min
T4 construct: CYP2E1 catalyzed reactions (chlorzoxazone 6-hydroxylation) in pooled HLM; from tissue; host or cells: pooled human liver microsomes
Method: (§4) After incubation, an aliquot (20 μL) was transferred to another incubation tube (final volume 200 μL) containing an NADPH-generating system and probe substrates whose final concentrations were approximate to Km. Then, further incubations were performed to measure the residual activity. After being incubated for different time (30 min for CYP2E1 and CYP2C9, 10 min for CYP3A4), the reactions were terminated by adding a 100 μL acetonitrile internal standard mix and then placed on ice; the corresponding metabolites were determined by HPLC.

CYP1A2 = CYP1A2 (Homo sapiens, UniProt P05177); experiment: CYP1A2 inhibition in human liver microsomes (phenacetin O-deethylation); assay type: in vitro ADME; conditions: 100 μM bergenin, pooled HLMs
Method: as §1, §2

CYP2C9 [5] = molecular target: T2, CYP2C9; experiment: Time-dependent inhibition study in HLMs, CYP2C9; assay type: in vitro ADME; conditions: bergenin 20 μM, pre-incubation with HLM and NADPH for 30 min
Method: as §4

CYP2E1 [6] = molecular target: T4, CYP2E1; experiment: CYP2E1 inhibition in human liver microsomes (chlorzoxazone 6-hydroxylation); assay type: in vitro ADME
Method: as §1, §2, §3

CYP2C8 = molecular target: T5, CYP2C8 (Homo sapiens, UniProt P10632); experiment: CYP2C8 inhibition in human liver microsomes (paclitaxel 6α-hydroxylation); assay type: in vitro ADME; conditions: 100 μM bergenin, pooled HLMs
T5 construct: from tissue; host or cells: pooled human liver microsomes
T5 sequence (P10632 1-490): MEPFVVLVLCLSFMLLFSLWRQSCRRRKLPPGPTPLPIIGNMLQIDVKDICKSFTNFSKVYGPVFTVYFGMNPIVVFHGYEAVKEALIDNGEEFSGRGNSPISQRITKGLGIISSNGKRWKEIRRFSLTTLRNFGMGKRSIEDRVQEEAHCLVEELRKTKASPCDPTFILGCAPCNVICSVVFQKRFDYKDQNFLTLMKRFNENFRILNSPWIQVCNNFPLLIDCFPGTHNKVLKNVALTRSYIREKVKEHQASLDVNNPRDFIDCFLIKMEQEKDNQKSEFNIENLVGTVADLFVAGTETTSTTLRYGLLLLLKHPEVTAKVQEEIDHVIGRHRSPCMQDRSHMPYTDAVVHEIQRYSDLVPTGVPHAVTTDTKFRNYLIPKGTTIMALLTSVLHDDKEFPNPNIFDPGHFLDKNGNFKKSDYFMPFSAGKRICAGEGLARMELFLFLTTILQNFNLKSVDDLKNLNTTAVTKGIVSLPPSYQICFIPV
Method: as §1, §2

CYP3A4 [7] = molecular target: T3, CYP3A4; experiment: Time-dependent inhibition study in HLMs, CYP3A4; assay type: in vitro ADME
Method: as §4
Figure 7. […] The initial rate constant of inactivation of CYP3A4 by each concentration (Kobs) was determined through linear regression analysis of the natural logarithm of the percentage of remaining activity versus pre-incubation time (A).

CYP2C19 = CYP2C19 (Homo sapiens, UniProt P33261); experiment: CYP2C19 inhibition in human liver microsomes (S-mephenytoin 4-hydroxylation); assay type: in vitro ADME; conditions: 100 μM bergenin, pooled HLMs
Method: as §1, §2

[8] = Lineweaver–Burk plots, pooled HLMs

T2 sequence (P11712 whole entry): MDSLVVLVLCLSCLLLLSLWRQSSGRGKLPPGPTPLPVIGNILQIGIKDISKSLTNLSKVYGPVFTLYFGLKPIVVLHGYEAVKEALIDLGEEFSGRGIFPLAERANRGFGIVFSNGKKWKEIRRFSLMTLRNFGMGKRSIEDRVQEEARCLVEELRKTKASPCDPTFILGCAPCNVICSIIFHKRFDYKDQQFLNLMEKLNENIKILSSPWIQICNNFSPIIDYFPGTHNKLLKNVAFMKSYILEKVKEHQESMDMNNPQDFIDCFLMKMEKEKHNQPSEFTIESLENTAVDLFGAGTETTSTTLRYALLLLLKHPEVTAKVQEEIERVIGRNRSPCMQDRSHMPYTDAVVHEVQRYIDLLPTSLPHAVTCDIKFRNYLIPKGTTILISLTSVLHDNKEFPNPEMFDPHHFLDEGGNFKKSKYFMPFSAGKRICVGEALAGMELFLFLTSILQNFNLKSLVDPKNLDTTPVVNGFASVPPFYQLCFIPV
T3 sequence (P08684 whole entry): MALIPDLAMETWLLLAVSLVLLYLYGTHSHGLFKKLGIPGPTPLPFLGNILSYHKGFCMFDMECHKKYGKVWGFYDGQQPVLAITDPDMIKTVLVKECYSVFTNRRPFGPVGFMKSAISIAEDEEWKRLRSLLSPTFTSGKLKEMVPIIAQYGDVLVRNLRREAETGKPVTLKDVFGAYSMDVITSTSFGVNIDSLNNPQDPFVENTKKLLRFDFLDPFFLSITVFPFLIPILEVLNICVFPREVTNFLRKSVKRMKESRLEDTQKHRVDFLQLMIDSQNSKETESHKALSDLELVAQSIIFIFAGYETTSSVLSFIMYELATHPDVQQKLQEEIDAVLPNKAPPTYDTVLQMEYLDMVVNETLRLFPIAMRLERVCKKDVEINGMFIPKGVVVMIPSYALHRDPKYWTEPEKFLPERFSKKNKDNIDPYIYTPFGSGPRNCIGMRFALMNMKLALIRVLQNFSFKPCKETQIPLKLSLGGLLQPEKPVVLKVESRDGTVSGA
T4 sequence (P05181 whole entry): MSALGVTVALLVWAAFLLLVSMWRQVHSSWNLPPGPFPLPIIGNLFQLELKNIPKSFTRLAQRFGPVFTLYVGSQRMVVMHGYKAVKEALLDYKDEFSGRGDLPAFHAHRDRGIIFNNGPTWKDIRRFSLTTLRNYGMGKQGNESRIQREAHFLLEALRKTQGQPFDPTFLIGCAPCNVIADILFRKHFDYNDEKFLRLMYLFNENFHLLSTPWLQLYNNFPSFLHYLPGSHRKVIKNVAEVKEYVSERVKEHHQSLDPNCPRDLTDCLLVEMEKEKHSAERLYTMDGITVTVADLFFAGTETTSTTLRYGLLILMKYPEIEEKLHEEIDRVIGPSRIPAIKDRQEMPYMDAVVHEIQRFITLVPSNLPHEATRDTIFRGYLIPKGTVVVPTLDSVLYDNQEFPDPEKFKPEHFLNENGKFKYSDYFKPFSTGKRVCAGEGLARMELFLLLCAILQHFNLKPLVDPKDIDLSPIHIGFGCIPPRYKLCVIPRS
Chain of CYP2D6 (P10635 whole entry): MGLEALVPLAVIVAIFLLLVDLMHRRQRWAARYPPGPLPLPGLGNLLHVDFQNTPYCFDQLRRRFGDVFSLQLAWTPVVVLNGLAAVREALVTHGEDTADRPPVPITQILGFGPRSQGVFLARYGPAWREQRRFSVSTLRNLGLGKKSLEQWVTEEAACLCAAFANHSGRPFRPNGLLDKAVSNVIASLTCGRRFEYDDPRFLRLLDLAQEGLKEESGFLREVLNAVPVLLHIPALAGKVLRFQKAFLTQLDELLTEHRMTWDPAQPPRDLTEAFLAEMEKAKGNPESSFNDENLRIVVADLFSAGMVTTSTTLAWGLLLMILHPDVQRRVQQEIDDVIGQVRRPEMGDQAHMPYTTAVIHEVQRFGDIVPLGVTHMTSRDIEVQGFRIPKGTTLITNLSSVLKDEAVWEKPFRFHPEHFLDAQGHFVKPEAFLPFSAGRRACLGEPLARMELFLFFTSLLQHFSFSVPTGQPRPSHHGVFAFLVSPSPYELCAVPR
Chain of CYP2C19 (P33261 whole entry): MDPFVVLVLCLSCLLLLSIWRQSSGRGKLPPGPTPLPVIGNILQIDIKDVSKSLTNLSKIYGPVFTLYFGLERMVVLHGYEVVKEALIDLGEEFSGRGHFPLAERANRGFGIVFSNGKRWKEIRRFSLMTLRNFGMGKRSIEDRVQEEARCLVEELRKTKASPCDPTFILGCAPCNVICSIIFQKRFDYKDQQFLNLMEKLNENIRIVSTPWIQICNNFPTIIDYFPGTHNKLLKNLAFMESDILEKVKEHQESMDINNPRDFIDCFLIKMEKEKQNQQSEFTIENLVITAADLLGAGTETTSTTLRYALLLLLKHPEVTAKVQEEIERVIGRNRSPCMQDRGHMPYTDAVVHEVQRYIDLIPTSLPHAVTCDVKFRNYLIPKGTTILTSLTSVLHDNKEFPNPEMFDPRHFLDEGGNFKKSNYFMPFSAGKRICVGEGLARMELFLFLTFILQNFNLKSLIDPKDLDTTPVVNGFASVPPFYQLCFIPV
Chain of CYP1A2 (P05177 whole entry): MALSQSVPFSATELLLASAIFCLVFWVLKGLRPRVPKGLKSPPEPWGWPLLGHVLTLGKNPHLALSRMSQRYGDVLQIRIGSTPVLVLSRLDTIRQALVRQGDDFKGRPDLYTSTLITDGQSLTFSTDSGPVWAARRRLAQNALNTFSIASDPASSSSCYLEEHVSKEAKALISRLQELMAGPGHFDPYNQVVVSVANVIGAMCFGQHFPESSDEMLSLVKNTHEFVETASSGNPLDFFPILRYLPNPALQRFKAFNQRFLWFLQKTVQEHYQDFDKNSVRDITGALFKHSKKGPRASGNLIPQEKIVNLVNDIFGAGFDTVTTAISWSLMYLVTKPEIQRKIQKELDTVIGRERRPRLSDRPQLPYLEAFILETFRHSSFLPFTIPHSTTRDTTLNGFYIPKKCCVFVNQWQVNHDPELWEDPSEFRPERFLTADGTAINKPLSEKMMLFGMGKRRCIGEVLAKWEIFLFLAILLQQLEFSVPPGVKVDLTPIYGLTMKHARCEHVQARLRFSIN

For COc1c(O)cc2c(c1O)[C@@H]1O[C@H](CO)[C@@H](O)[C@H](O)[C@H]1OC2=O [bergenin, Bergenin], the “Inhibition of CYP2A6 activity” value (CYP2A6) was “did not inhibit”, the “Inhibition mode CYP2C9” value (CYP2C9 [1]; Lineweaver–Burk plots) was “competitive” and the IC50 (CYP2C9 [1]; diclofenac 4′-hydroxylation) was 15.1 µM. For the same molecule, the Ki (CYP2C9 [1]; secondary Lineweaver–Burk plot, diclofenac 2–20 μM) was 8.89 µM, the “Inhibition of CYP2D6 activity” value (CYP2D6) was “did not inhibit” and the “Inhibition mode CYP3A4” value (CYP3A4 [2]; [8]) was “non-competitive”. The activity at 100 μM (CYP3A4 [2]; human, pooled human liver microsomes, pH 7.4, probe testosterone (6β-hydroxylation), read-out: CYP3A4 activity, % of control activity) was 11%, the “Plasma Cmax” value [3] was “less than 300 ng/mL” and the Cmax ([3]; read-out: Plasma Cmax) was less than 900 nM. For the same molecule, the “Time-dependent inhibition, activity of CYP2E1” value (CYP2E1 [4]) was “not affected”, the “Inhibition of CYP1A2 activity” value (CYP1A2) was “did not inhibit” and the “Time-dependent inhibition, activity of CYP2C9” value (CYP2C9 [5]) was “not affected”. For the same molecule, the “Inhibition mode CYP2E1” value (CYP2E1 [6]; [8]) was “competitive”, the activity at 100 μM (CYP2E1 [6]; human, pooled human liver microsomes, pH 7.4, probe chlorzoxazone (6-hydroxylation), read-out: CYP2E1 activity, % of control activity) was 12.2% and the IC50 (CYP2E1 [6]; pooled HLMs, chlorzoxazone 6-hydroxylation) was 22.8 µM. For the same molecule, the Ki (CYP2E1 [6]; pooled HLMs, secondary Lineweaver–Burk plot, chlorzoxazone 25–200 μM) was 11.4 µM, the “Inhibition of CYP2C8 activity” value (CYP2C8) was “did not inhibit” and the “Time-dependent inhibition, activity of CYP3A4” value (CYP3A4 [7]; bergenin 20 μM, pre-incubation with HLM and NADPH for 30 min) was “decreased with the incubation time”. For the same molecule, the “CYP3A4 inactivated each minute” value (CYP3A4 [7]; saturating concentration of bergenin incubated with HLM, implied by Kinact) was “approximately 2.5%” and the “Inhibition of CYP2C19 activity” value (CYP2C19) was “did not inhibit”.
